From US8217042B2, “Pyridopyrazines and their use as modulators of kinases” (Zentaris GmbH, priority 2005, dated 2012)
pEC50, pIC50: −log10 of the molar value.

Key:
Erk →pRsk = test: Cellular substrate phosphorylation (Western blotting), Erk substrate Rsk1; format: cell-based; conditions: 5 h, tumour cell line
Method: (§1) This method enables a statement of whether the kinase modulator investigated achieves the desired effect in a cellular context too, i.e., in this case, a substrate protein downstream of the target kinase is examined for its phosphorylation status. To this end, the cells incubated with substance are lysed and the overall protein is separated on a reducing polyacrylamide gel. Subsequently, the proteins are transferred by means of Western blotting to a PVDF membrane and the substrate bands sought are made visible with specific antibodies and a suitable detection method. The substrate proteins downstream of the target kinases are detected simultaneously with an anti-phospho antibody which is specific in each case and simultaneously a total antibody which recognizes the substrate total protein. The duplex technology of the ODYSSEY imager (LiCOR) enables this simultaneous measurement. The intensity of the total substrate bands is employed to normalize and quantify the phosphorylation inhibition or activation.
(§2) Suitable tumour cell lines (e.g. BxPC3, Hct116 or MDA MB468) were seeded into 6-well microtitre plates in a defined cell count (e.g. 350 000 cells/well for BxPC3 and Hct116) in the particular standard complete media and then incubated overnight in an incubator at 37° C., 5% CO2 and 95% air humidity. The cells were then incubated further for a further 24 h under reduced-serum conditions, i.e. in the particular medium except at only 0.25% serum. The test substances were made up as stock solutions (10 mM) in DMSO and incubated with the cells at final concentrations of 5, 15.8 and 50 μM for 5 h. This was followed by cell lysis in 25 mM Tris, 150 mM NaCl, 10 mM sodium pyrophosphate, 2 mM EGTA, 25 mM beta-glycerophosphate, 25 mM NaF, 10% glycerol, 0.75% NP-40, 100 μM NaVO4 buffer. After protein quantification by means of BCA (bicinchonic acid protein assay kit, Sigma) assay, amounts of protein of about 20 μg per track were separated on a Lammli polyacrylamide gel and then transferred onto a PVDF membrane (Millipore) by means of semi-dry Western blotting at 0.8 mA/cm^2 for 1 h. This was followed by prehybridization of the membrane for 1 hour in I-block reagent (Applied Biosystems) and overnight incubation with the specific antibodies. To determine the Erk and PI3K inhibition, the next substrates Rsk1 downstream were detected with the total antibody (Rsk #sc-231g C-21, Santa Cruz) and the phospho antibody (Phospho-p90RSK (S380) #9341, NEB Cell Signalling) and Akt with the total antibody (Akt1 #sc-20, Santa Cruz) and the phospho antibody (Phospho-Akt (Ser 473) #9271, NEB Cell Signaling). After the membrane had been washed, the secondary antibodies were incubated with anti-rabbit IR Dye 800 (#611-732-127, Rockland) for the phospho antibody and anti-goat Alexa Fluor 680 (#A-21081, […]) for the total protein antibody. After incubation for 30 min at room temperature in the dark, the hybridization of the detection antibody was detected on the membrane by scanning in an ODYSSEY imager (LiCOR).

PI3K →pAkt = test: Cellular substrate phosphorylation (Western blotting), PI3K substrate Akt; format: cell-based; conditions: 5 h, tumour cell line
Method: as §1, §2

Erk2 = target: T1, Erk2; test: Cell-free kinase assay (ALPHA technology), Erk2-ALPHA; format: biochemical; conditions: 10 μM ATP, recombinant human kinase
T1 construct: in some cases as full-length kinases, in some cases as truncated fragments; purchased Upstate 14-173
Method: (§3) The inhibitory effect of the inventive compounds was tested on various human serine/threonine kinases, tyrosine kinases and lipid kinases in enzymatic assays. Recombinant human kinases, for example Erk2, PI3Kalpha, -beta, -gamma, -delta, p38alpha, p38gamma, Jnk1, Jnk2 and others were used, in some cases as full-length kinases, in some cases as truncated fragments—but at least consisting of the functional kinase domains. The commercial kinase proteins (Proqinase, Upstate) were used as recombinant fusion proteins with GST (glutathione S-transferase) tag or His tag. Depending on the substrate type, the different kinase reactions were quantified by means of suitable ALPHA™ beads (PerkinElmer).
(§4) The substrate testing on the Erk assay is described in detail below. Selected test results of the Erk2, PI3Kalpha assays are cited below. […] The kinase reaction was then stopped by adding 10 μl of the ALPHA bead mix (10 μg/ml, #6760617/PerkinElmer), pre-incubated with anti-phospho MBP antibody (320 μM, #05-429/Upstate), in 25 mM Tris, 200 mM NaCl, 100 mM EDTA and 0.3% BSA, and left to stand overnight. • b) PI3K-ALPHAs (e.g. PI3Kalpha): The test substance, 1 ng of PI3Kalpha (#14-602, Upstate), 100 μM ATP and 20 μM PIP2 substrate (#P4508, Echelon) on a 384-well Optiplate (Perkin Elmer) for 1 h in 50 mM Hepes, 50 mM NaCl, 5 mM MgCl2, 0.05% Chaps, 5 mM DTT at pH 7.4. Subsequently, the kinase reaction was stopped by adding the ALPHA bead mix (10 μg/ml, #6760603/PerkinElmer), preincubated with 1 nM GST:Grp1 fusion protein (Upstate) and 15 nM biotinylated PIP3 (#C-39B6/Echelon) in 50 mM Hepes, 50 mM NaCl, 50 mM EDTA and 0.1% BSA, and left to stand overnight.
(§5) The fluorescence was detected the next morning in a Fusion™ alpha instrument (Perkin Elmer).
(§6) The calculation of % inhibition values per substance concentration was done by means of the following formula from the raw data determined in the Fusion™ alpha:
(§7) The controls were each determined 8 times, the substance samples each twice. 0% control contained neither any ATP nor any substrate; the 100% control contained no test substance. The IC50 values were determined with GraphPadPrism.

PI3Kalpha = target: T2, PI3Kalpha (Homo sapiens, UniProt P42336); test: Cell-free kinase assay (ALPHA technology), PI3K-ALPHA; format: biochemical; conditions: 100 μM ATP, recombinant human kinase
T2 construct: in some cases as full-length kinases, in some cases as truncated fragments; purchased Upstate 14-602
Method: as §3, §4, §5, §6, §7

MDA-MB468 = test: XTT assay, anti-proliferative action, MDA-MB468; format: cell-based; conditions: MDA-MB468 cells, 45 h incubation
Method: (§8) The principle of this test is based on the intracellular reduction of the tetrazolium dye XTT (sodium 3′-[1-(phenylaminocarbonyl)-3,4-tetrazolium]bis(4-methoxy-6-nitro)benzenenesulphonic acid, Sigma) to a formazan dye by mitochondrial dehydrogenases.
(§9) The dye is formed only by metabolically active cells; its photometrically measurable intensity is a quantitative indicator for the presence of living cells. The reduction in the dye formation as a result of incubation of the cells with substances serves as a parameter for the anti-proliferative action.
(§10) The tumour cell lines (ATCC) were seeded in 96-well microtitre plates in a defined cell count (5000 cells/well for BxPC3 and Hct116; 10 000 cells/well for MDA MB468), and then incubated overnight in an incubator at 37° C., 5% CO2 and 95% air humidity. The test substances were made up as stock solutions (10 mM) in DMSO. […] The cell plates were then incubated for 45 h in an incubator at 37° C., 5% CO2 and 95% air humidity.
(§11) For the detection reaction, the XTT substrate was admixed with PMS (N-methyldibenzopyrazine methylsulphate, Sigma) and added to the cells, so as to result in a final concentration of 325 μg of XTT/ml and 2.5 μg PMS/ml. The mixture was then incubated for 3 h at 37° C., 95% air humidity. Subsequently the formazan salt formed by cellular dehydrogenases was quantified at an absorption of 490 nm.
(§12) The evaluation of the % inhibition values was done by means of the following formula from the values for the optical densities measured in each case at 490 nm:
(§13) The controls were determined 8 times each, the substance samples twice each. 0% control contained no cells; the 100% control contained no test substance. The EC50 values were determined with GraphPadPrism.

Jnk1 + Jnk2 = test: Cell-free kinase assay (ALPHA technology), Jnk1 + Jnk2; format: biochemical; conditions: at 10 μM or 100 μM* ATP, recombinant human kinases
Method: as §3, with “(PerkinElmer). […]” for “(PerkinElmer).”
as §5, §6, §7

Hct116 = test: XTT assay, anti-proliferative action, Hct116; format: cell-based; conditions: Homo sapiens, HCT-116, 45 h, Hct116 cells, 45 h incubation
Method: as §8, §9, §10, §11, §12, §13

BxPC3 = test: XTT assay, anti-proliferative action, BxPC3; format: cell-based; conditions: BxPC3 cells, 45 h incubation
Method: as §8, §9, §10, §11, §12, §13

p38alpha = target: T3, p38alpha (Homo sapiens, UniProt Q16539); test: Cell-free kinase assay (ALPHA technology), p38alpha; format: biochemical; conditions: at 10 μM or 100 μM* ATP, recombinant human kinase
T3 construct: in some cases as full-length kinases, in some cases as truncated fragments
Method: as §3, with “(PerkinElmer). […]” for “(PerkinElmer).”
as §5, §6, §7

T1 sequence (P63085 whole entry, the tested form may be a part): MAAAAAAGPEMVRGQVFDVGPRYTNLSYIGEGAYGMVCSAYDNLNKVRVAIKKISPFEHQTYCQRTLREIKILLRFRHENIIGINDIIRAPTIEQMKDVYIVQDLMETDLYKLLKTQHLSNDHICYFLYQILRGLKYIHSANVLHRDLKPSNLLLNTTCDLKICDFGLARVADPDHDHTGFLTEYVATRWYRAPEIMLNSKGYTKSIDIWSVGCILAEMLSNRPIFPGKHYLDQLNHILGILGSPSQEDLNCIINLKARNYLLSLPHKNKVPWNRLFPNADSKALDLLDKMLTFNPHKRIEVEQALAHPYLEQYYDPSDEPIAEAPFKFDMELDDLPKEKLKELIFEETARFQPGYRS
T3 sequence (Q16539 whole entry, the tested form may be a part): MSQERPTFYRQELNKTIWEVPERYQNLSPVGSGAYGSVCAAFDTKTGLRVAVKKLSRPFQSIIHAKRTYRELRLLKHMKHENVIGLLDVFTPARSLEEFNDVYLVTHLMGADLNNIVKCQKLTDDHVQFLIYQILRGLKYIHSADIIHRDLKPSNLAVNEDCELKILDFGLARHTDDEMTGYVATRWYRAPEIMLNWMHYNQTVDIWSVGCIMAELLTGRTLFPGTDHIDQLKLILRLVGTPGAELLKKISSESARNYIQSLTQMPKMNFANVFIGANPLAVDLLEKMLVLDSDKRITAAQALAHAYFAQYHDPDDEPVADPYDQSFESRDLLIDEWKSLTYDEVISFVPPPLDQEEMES
T2 sequence (P42336 whole entry, the tested form may be a part): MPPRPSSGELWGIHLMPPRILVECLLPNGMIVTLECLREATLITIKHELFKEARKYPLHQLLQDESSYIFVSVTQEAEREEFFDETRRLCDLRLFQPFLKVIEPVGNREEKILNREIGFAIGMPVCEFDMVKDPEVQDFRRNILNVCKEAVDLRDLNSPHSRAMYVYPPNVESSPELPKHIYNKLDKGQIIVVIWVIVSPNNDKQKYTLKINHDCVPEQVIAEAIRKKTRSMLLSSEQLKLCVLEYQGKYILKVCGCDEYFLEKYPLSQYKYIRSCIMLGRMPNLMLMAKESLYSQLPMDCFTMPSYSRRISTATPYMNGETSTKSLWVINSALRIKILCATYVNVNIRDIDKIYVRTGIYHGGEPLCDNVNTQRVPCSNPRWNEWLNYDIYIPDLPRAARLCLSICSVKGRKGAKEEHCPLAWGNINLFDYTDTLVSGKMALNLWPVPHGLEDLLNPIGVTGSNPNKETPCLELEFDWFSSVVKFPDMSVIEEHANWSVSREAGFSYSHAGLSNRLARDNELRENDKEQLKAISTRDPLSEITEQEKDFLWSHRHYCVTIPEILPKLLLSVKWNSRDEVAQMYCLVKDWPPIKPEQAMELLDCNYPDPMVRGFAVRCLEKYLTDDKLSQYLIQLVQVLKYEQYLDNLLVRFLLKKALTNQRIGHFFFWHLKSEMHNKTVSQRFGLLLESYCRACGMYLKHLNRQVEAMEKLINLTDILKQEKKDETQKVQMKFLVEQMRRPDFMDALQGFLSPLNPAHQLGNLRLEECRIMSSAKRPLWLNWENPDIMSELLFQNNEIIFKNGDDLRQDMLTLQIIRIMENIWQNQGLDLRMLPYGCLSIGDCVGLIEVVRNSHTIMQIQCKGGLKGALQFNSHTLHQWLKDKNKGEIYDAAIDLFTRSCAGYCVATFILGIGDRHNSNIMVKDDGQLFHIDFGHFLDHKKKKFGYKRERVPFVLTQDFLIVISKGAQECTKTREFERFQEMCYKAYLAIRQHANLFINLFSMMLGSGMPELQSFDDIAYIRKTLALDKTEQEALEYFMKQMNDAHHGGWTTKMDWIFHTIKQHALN
T2 sequence (P27986 whole entry partner, the tested form may be a part): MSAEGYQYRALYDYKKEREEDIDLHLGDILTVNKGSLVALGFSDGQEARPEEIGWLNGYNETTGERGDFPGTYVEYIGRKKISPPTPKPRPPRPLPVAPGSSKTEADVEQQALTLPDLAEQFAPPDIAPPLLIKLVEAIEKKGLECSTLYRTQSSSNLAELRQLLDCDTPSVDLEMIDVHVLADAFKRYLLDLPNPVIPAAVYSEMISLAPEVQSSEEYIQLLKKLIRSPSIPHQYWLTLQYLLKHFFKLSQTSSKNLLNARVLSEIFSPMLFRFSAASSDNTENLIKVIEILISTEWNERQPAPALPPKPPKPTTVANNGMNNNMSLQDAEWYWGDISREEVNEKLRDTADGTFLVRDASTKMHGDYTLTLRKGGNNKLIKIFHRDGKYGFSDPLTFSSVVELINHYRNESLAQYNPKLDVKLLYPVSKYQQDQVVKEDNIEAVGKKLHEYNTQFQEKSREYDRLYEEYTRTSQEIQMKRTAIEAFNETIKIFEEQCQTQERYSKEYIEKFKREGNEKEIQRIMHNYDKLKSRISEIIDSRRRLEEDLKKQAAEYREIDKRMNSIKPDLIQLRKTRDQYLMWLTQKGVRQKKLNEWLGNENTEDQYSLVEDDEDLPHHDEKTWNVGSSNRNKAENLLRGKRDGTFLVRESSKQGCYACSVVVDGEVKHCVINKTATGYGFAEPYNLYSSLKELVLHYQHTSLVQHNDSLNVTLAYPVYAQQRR

pIC50 (Erk2)	pIC50 (PI3Kalpha)	pEC50 (MDA-MB468; Homo sapiens, MDA-MB-468, 45 h)	pIC50 (Jnk1 + Jnk2)	pEC50 (Hct116)	pEC50 (BxPC3; Homo sapiens, BXPC-3, 45 h)	pEC50 (MDA-MB468)	pEC50 (BxPC3)	melting point	pIC50 (p38alpha)	Compound	inhibition at 50 µM (Erk →pRsk)	inhibition at 50 µM (PI3K →pAkt)
6.29	5.48	4.96	5.25	4.96	< 4.60					CCNC(=O)Nc1ccc2ncc(-c3cccc(OC(=O)OCCOC)c3)nc2n1 [Compound 16, 3-[6-(3-Ethylurea)pyrido[2,3-b]pyrazin-3-yl]phenyl 2-methoxyethyl carbonate]		
6.57	5.89		5.51	5.03		4.81	< 4.70			CCNC(=O)Nc1ccc2ncc(-c3ccc(OC(=O)OCCOC)cc3)nc2n1 [Compound 56, 4-[6-(3-Ethylurea)pyrido[2,3-b]pyrazin-3-yl]phenyl 2-methoxyethyl carbonate p-toluenesulphonate]		
			5.54					230 to 232 °C		CCNC(=O)Nc1ccc2ncc(-c3ccc(OC(=O)OCCOC)cc3)nc2n1 [Compound 10, 4-[6-(3-Ethylurea)pyrido[2,3-b]pyrazin-3-yl]phenyl(2-methoxyethyl)carbonate]	100%	100%
5.72	5.89	< 4.60	5.24	4.80	< 4.30			> 350 °C (dec.)		CCNC(=O)Nc1ccc(-c2cnc3ccc(NC(=O)NCC)nc3n2)cc1 [Compound 23, 1-Ethyl-3-{3-[4-(3-ethylurea)phenyl]pyrido[2,3-b]pyrazin-6-yl}urea]	0%	70%
6.78	4.93	< 4.60	< 4.00	5.47	< 4.60					CCNC(=O)Nc1ccc2ncc(-c3ccc(OC(=O)OCC(C)C)cc3)nc2n1 [Compound 17, 4-[6-(3-Ethylurea)pyrido[2,3-b]pyrazin-3-yl]phenyl isobutyl carbonate]		
			< 4.00					243 to 245 °C		CCNC(=O)Nc1ccc2ncc(-c3ccc(OC(=O)OC)cc3)nc2n1 [Compound 9, 4-[6-(3-Ethylurea)pyrido[2,3-b]pyrazin-3-yl]phenyl methyl carbonate]	90%	50%

Further lines, the compound ahead of its results:

Compound	pIC50 (Erk2)	pIC50 (PI3Kalpha)	pEC50 (MDA-MB468; Homo sapiens, MDA-MB-468, 45 h)	pIC50 (Jnk1 + Jnk2)	pEC50 (Hct116)	pEC50 (BxPC3; Homo sapiens, BXPC-3, 45 h)	pEC50 (MDA-MB468)	pEC50 (BxPC3)	melting point	pIC50 (p38alpha)	inhibition at 50 µM (Erk →pRsk)	inhibition at 50 µM (PI3K →pAkt)
CCNC(=O)Nc1ccc2ncc(-c3ccc(OC(=O)OCCOC)c(OC)c3)nc2n1 [Compound 32, 4-[6-(3-Ethylurea)pyrido[2,3-b]pyrazin-3-yl]-2-methoxyphenyl 2-methoxyethyl carbonate]	6.08	5.89	5.35	5.38	5.66	5.23					100%	90%
CCNC(=O)Nc1ccc2ncc(Nc3ccc(S(C)(=O)=O)cc3)nc2n1 [Compound 48, 1-Ethyl-3-[3-(4-methanesulphonylphenylamino)pyrido[2,3-b]pyrazin-6-yl]urea]	< 4.00	5.96		< 4.50					275 to 280 °C	< 4.00		
CONC(=O)Nc1ccc2ncc(-c3ccc(O)c(OC)c3)nc2n1 [Compound 61, 1-Methoxy-3-[3-(4-hydroxy-3-methoxy-phenyl)-pyrido[2,3-b]pyrazin-6-yl]-urea]	6.52	5.82	5.15	5.68	5.22					< 4.00		
CCNC(=O)Nc1ccc2ncc(Nc3cccc(C(=O)NC)c3)nc2n1 [Compound 50, 3-[6-(3-Ethylurea)pyrido[2,3-b]pyrazin-3-ylamino]-N-methylbenzamide]	5.33	6.17		< 4.50					228 to 234 °C	4.74		
